Source: ChEMBL document CHEMBL3621154 (Medchemcomm, 2014)
pIC50: −log10 of the molar value.

Tests used:
[1] = biological target: T1, Amine oxidase [flavin-containing] A (Homo sapiens, UniProt P21397)
T1 sequence (P21397 whole entry): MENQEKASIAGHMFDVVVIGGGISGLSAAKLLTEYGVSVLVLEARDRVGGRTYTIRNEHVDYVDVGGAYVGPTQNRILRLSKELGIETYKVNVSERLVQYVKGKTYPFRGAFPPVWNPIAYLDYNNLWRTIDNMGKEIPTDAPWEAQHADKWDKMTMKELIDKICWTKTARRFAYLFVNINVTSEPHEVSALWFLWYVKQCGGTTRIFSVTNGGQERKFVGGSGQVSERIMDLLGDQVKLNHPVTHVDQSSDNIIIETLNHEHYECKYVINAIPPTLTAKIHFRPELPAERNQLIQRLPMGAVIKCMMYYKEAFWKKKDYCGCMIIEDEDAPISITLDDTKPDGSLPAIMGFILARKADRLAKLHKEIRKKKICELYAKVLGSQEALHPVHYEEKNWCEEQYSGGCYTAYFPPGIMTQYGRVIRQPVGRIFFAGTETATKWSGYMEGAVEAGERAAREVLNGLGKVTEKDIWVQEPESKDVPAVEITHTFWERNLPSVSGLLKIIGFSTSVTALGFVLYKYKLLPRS
Description: Inhibition of MAOA (unknown origin) by luminiscent assay

[2] = biological target: T2, Amine oxidase [flavin-containing] B (Homo sapiens, UniProt P27338)
T2 sequence (P27338 whole entry): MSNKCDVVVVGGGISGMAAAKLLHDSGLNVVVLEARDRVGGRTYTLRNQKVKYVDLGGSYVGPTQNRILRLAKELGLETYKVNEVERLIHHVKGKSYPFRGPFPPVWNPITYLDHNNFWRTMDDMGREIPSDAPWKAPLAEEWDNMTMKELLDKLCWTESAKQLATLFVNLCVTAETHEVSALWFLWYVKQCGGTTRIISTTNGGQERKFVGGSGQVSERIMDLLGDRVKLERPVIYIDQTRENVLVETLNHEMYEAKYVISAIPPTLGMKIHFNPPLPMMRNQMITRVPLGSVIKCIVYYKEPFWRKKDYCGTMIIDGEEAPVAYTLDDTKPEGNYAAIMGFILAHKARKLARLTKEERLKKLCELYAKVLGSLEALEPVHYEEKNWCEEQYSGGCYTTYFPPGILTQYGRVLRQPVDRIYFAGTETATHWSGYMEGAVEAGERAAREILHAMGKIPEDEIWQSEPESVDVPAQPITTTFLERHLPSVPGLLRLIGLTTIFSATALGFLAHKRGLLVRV
Description: Inhibition of MAOB (unknown origin) by luminiscent assay

SMILES	pIC50 [1]	pIC50 [2]
COc1ccccc1CNc1n[nH]c(NCc2ccccc2OC)n1	< 4.00	< 4.00
Nc1nnc(NCc2c(Cl)cccc2Oc2ccccc2)[nH]1	< 4.00	< 4.00
